Assay results from ChEMBL document CHEMBL1201862, “PubChem BioAssay data set” (2004).
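Values below derive from 48-hour exposures of cells grown in 96-well plates, with endpoints linearly interpolated between the two concentrations bracketing the appropriate inhibition level. At the GI50, growth is halved.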 The source made the active and inactive calls. Rule as the data show it: active = GI50 up to about 1.1 µM and inactive = higher.

Tests used:
Assay in all cases: inhibition of tumour cell growth, NCI panel, 48 h
[1] = tested on: DU-145
[2] = tested on: M14
[3] = tested on: MOLT-4
[4] = tested on: PC-3
[5] = tested on: IGROV-1
[6] = tested on: HOP-62
[7] = tested on: MDA-MB-435
[8] = tested on: OVCAR-3
[9] = tested on: HCT-15
[10] = tested on: SW-620
[11] = tested on: A549
[12] = tested on: MDA-MB-231
[13] = tested on: MDA-N
[14] = tested on: SF-295
[15] = tested on: SK-MEL-28
[16] = tested on: SF-268
[17] = tested on: UO-31
[18] = tested on: CCRF-CEM
[19] = tested on: NCI-H23
[20] = tested on: HCT-116

Measured: GI50

Cc1ccc(S(=O)(=O)C2=Cc3ccc(C(F)(F)F)cc3C2(O)c2cccc(C(F)(F)F)c2)cc1 (stereo not given)
1950 nM: [9]
inactive: [1] 3250 nM | [2] 2400 nM | [3] 2500 nM | [4] 2790 nM | [5] 2640 nM | [6] 7350 nM | [7] 2050 nM | [8] 1640 nM | [10] 1850 nM | [11] 2990 nM | [12] 2080 nM | [13] 2380 nM | [14] 2450 nM | [15] 1900 nM | [16] 2390 nM | [17] 2250 nM | [18] 2560 nM | [19] 2010 nM | [20] 1580 nM
